Laboratory results taken from patent publication US20070197509A1, “Compositions and methods for modulating gated ion channels” (PainCeptor Pharma Corporation, priority 2005, published 2007).

Tested on: hASIC3 (h3) and/or hASIC1a (h1a)
Test: FlexStation/FLIPR assay, channel not marked in the cell
Type: cell-based, human
Conditions: FlexStation, Table C
Description: The MES-induced peak calcium response (or change in membrane potential), in the presence of test substance, is expressed relative to the MES response alone. Test substances that block the MES-induced calcium response (or change in membrane potential) are re-tested in triplicates. Confirmed hits are picked for further characterization by performing full dose-response curves to determine potency of each hit compound as represented by the IC50 values (i.e., the concentration of the test substance which inhibits 50% of the MES-induced calcium and/or membrane potentiation response; see, for example, FIG. 1).
The data shown in Table H was acquired using the FlexStation assay described in Example 1 on HEK293 cells expressing hASIC3 (h3) and/or hASIC1a (h1a).

SMILES	Biological Data (Flex), channel not given
COc1ccc(-c2cc(C(=O)O)c3cc(Cl)ccc3n2)cc1 [Compound 38, 6-chloro-2-(4-methoxy-phenyl)-quinoline-4-carboxylic acid]	Not Active (Flex)
COc1ccc(-c2cc(C(=O)O)c3ccccc3n2)cc1OC [Compound 39, 2-(3,4-Dimethoxy-phenyl)-quinoline-4-carboxylic acid]	Not Active (Flex)
